Laboratory results as given in patent publication US20030158126A1, “Method of treatment for fungal infections with a synergistic formulation of antifungal agents” (priority 2002, published 2003).
Blank lines part the entries; values can stand above or below the compound they belong to.

How the values were obtained:
Candida albicans [1] = test: Synergism of menthol, menthyl acetate or their ratios with antifungal drugs (MIC, FIC, fold enhancement); assay type: cell-based, Candida albicans (MTCC1637 equivalent to ATCC 18804); conditions: for synergism of the individual compound with Clotrimazole, Amphotericin B and Nystatin: individual compound at a concentration of 0.25 μg/ml
Protocol: In the present invention Candida albicans (MTCC1637 equivalent to ATCC 18804)=Interdigital mycoses, Neotype strain, production of citric acid) is used for all the experimentations (MTCC=Microbial type culture collection, Institute of Microbial Technology, Chandigarh, India). […]
The fractional inhibitory concentrations (FIC) are calculated by dividing the MIC of the combination with the MIC of antifungal compound alone. The enhancement is calculated by dividing the MIC of the antifungal compound with the MIC of the combination. […] Similarly, the maximum enhancement of Amphotericin is detected for the same set of ratios (2114, 2115, 2116). The enhancement of Nystatin is detected in the combinations with ratios 2112 and 2114. (TABLE 3)

Candida albicans [2] = test: Minimum inhibitory concentration (MIC) in broth culture of Candida albicans; assay type: cell-based, Candida albicans (MTCC1637 equivalent to ATCC 18804); conditions: for activity of the components at the concentrations used: proportional concentrations within 0.25 μg/ml
Protocol: In the present invention Candida albicans (MTCC1637 equivalent to ATCC 18804)=Interdigital mycoses, Neotype strain, production of citric acid) is used for all the experimentations (MTCC=Microbial type culture collection, Institute of Microbial Technology, Chandigarh, India).
The minimum inhibitory concentrations (MIC) of the compound menthyl acetate and menthol is determined in broth culture of Candida albicans and is estimated to be […] and 500 μg/ml respectively.
A combination of the two compounds menthol and menthyl acetate in 1:1 ratio is evaluated for synergistic action if any. […] Therefore this combination is further tested for activity against Candida in combination with known antifungal drugs.
Following ratios are prepared by dissolving menthol in menthyl acetate. The ratios are tested for minimum inhibitory concentration in broth cultures of Candida albicans. As mentioned in the TABLE 1, the MIC of ratios are several folds lower than the additive MIC of individual compounds. Identification numbers of the ratios are the numbers given to identify the combination and mean nothing more than this. […] All these combinations are found to be synergistic for antifungal activities.

[3] = antifungal drug alone or with menthol/menthyl acetate combination at 0.25 μg/ml

Structure (SMILES): C[C@@H]1[C@H](O)[C@@H](C)/C=C/C=C/CC/C=C/C=C/C=C/C=C/C(O[C@H]2O[C@H](C)[C@@H](O)[C@H](N)[C@@H]2O)CC2O[C@](O)(CC(O)C(O)CCC(O)CC(O)CC(O)CC(=O)O[C@H]1C)CC(O)C2C(=O)O (stereo partly drawn) [Nystatin (N), Nystatin]
- MIC (Candida albicans [1]; Nystatin (N) + Menthol (μg/ml)): 5.0 µg/mL
- MIC (Candida albicans [1]; Nystatin (N) + Menthyl acetate (μg/ml)): 5.0 µg/mL
- MIC (Candida albicans [1]; [3]): 5.0 µg/mL

- MIC (Candida albicans [1]; Amphotericin B (A) + Menthyl acetate (μg/ml)): 2.5 µg/mL
- MIC (Candida albicans [1]; Candida albicans, Amphotericin B (A) + Menthol (μg/ml), read-out: MIC): 2.5 µg/mL
- MIC (Candida albicans [1]; [3]): 2.5 µg/mL
Structure (SMILES): C[C@@H]1[C@H](O)[C@@H](C)/C=C/C=C/C=C/C=C/C=C/C=C/C=C/[C@H](O[C@@H]2O[C@H](C)[C@@H](O)[C@H](N)[C@@H]2O)C[C@@H]2O[C@](O)(C[C@@H](O)C[C@@H](O)[C@H](O)CC[C@@H](O)C[C@@H](O)CC(=O)O[C@H]1C)C[C@H](O)[C@H]2C(=O)O [Amphotericin B (A), Amphotericin B]

- minimum inhibitory concentrations (MIC) (Candida albicans [2]; broth culture of Candida albicans, printed as a dilution fraction): 1/400
Structure (SMILES): CC(=O)OC1CC(C)CCC1C(C)C (stereo not drawn) [menthyl acetate]
- activity of the components at the concentrations used (Candida albicans [2]): do not have any activity
- synergism of the individual compound with Clotrimazole, Amphotericin B and Nystatin (Candida albicans [1]): neither menthol nor menthyl acetate could lower the MIC

- MIC (Candida albicans [1]; Candida albicans, Clotrimazole (C) + Menthyl acetate (μg/ml), read-out: MIC): 1.25 µg/mL
- MIC (Candida albicans [1]; Clotrimazole (C) + Menthol (μg/ml)): 1.25 μ/ml
- MIC (Candida albicans [1]; [3]): 1.25 µg/mL
Structure (SMILES): Clc1ccccc1C(c1ccccc1)(c1ccccc1)n1ccnc1 [Clotrimazole (C), Clotrimazole]

- MIC (Candida albicans [2]; broth culture of Candida albicans, read-out: minimum inhibitory concentrations (MIC)): 500 mg/L
Structure (SMILES): CC1CCC(C(C)C)C(O)C1 (stereo not drawn) [menthol]
- activity of the components at the concentrations used (Candida albicans [2]): do not have any activity
- synergism of the individual compound with Clotrimazole, Amphotericin B and Nystatin (Candida albicans [1]): neither menthol nor menthyl acetate could lower the MIC
